According to US20250092065A1, “2-(INDAZOL-5-YL)-6-(PIPERIDIN-4-YL)-1,7-NAPHTHYRIDINE DERIVATIVES AND RELATED COMPOUNDS AS MODULATORS FOR SPLICING NUCLEIC ACIDS AND FOR THE TREATMENT OF PROLIFERATIVE DISEASES” (REMIX THERAPEUTICS INC., priority 2022, published 2025):
Where a name gives a salt, the structure may show the parent alone. Read-outs that look alike come from different tables or passages of the source.

Experiments:
SMN2 mRNA = assay: RT-qPCR splicing assay, SMN2 mRNA; assay type: cell-based, human; conditions: Homo sapiens, canonical junction qPCR panel, Table 4; read-out: SMN2 IC50 (decrease in CJ mRNA levels)
In short: (§1)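 A673 or K562 cells treated 24 h at 37 °C with an 11-point 3-fold dilution series (top 10 uM, DMSO ≤0.25%). Lysates went directly to one-step RT-qPCR quantifying canonical (CJ) and alternative-exon (AJ) junctions, normalized to GAPDH, GUSB or PPIA. Values from ΔΔCt versus DMSO, RQ = 2^(−ΔΔCt), expressed as percentage response.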

Target C = assay: RT-qPCR canonical junction panel assay, Target C mRNA; assay type: cell-based; conditions: Table 4, read-out: Target C IC50 (decrease in CJ mRNA levels)
In short: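 A673 or K562 cells treated with compound; CJ mRNA quantified by junction-spanning RT-qPCR probe after cDNA synthesis, normalised to GAPDH, GUSB or PPIA and DMSO (2^−ΔΔCt), scaled to set ΔCt assay window; IC50 from 4-parameter fit of CJ decrease.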

HTT mRNA = assay: RT-qPCR splicing assay, HTT mRNA canonical (CJ) and alternative (AJ) junction; assay type: cell-based, human; conditions: Homo sapiens; for AC50: HTT alternative junction mRNA, read-out: HTT AJ (increase in AJ mRNA, AC50)
In short: as §1

[1] = HTT canonical junction mRNA, RT-qPCR, read-out: HTT CJ (decrease in CJ mRNA levels, IC50)
[2] = canonical junction qPCR panel, Table 4, read-out: HTT IC50 (decrease in CJ mRNA levels)

Row | IC50 (SMN2 mRNA) [µM] | IC50 (Target C) [µM] | IC50 (HTT mRNA; [1]) [µM] | IC50 (HTT mRNA; [2]) [µM] | Compound | AC50 (HTT mRNA; RT-qPCR) [µM]
1 | < 0.1 | 1 to 10 | < 0.1 | < 0.1 | C[C@H]1CN(c2ccc3nc(-c4cc5cn(C)nc5c(F)c4O)ncc3c2)C[C@H](C)N1 [Compound 744, 5-{6-[(3S,5S)-3,5-dimethylpiperazin-1-yl]quinazolin-2-yl}-7-fluoro-2-methylindazol-6-ol] | < 0.1
2 | < 0.1 | 1 to 10 | 0.1 to 1 | 0.1 to 1 | C[C@@H]1CN(c2ccc3nc(-c4cc5cn(C)nc5c(F)c4O)ncc3c2)C[C@@H](C)N1 [Compound 745, 5-{6-[(3R,5R)-3,5-dimethylpiperazin-1-yl]quinazolin-2-yl}-7-fluoro-2-methylindazol-6-ol] | 0.1 to 1
3 | 0.1 to 1 | > 10 | > 10 | > 10 | CN[C@@H]1CCN(c2cc3c(Cl)cc(-c4cc5cn(C)nc5c(C)c4O)nc3cc2C)C1 [Compound 748, 5-{4-chloro-7-methyl-6-[(3R)-3-(methylamino)pyrrolidin-1-yl]quinolin-2-yl}-2,7-dimethylindazol-6-ol] | > 10
4 | < 0.1 | 1 to 10 | > 10 | > 10 | CN[C@H]1CCN(c2cc3c(Cl)cc(-c4cc5cn(C)nc5c(C)c4O)nc3cc2C)C1 [Compound 749, 5-{4-chloro-7-methyl-6-[(3S)-3-(methylamino)pyrrolidin-1-yl]quinolin-2-yl}-2,7-dimethylindazol-6-ol] | > 10
5 | < 0.1 | 0.1 to 1 | 0.1 to 1 | 0.1 to 1 | Cn1cc2cc(-c3ncc4cc(N5CCC(N6CCC6)CC5)ccc4n3)c(O)c(F)c2n1 [Compound 750, 5-{6-[4-(azetidin-1-yl)piperidin-1-yl]quinazolin-2-yl}-7-fluoro-2-methylindazol-6-ol] | 0.1 to 1
6 | < 0.1 | > 10 | > 10 | > 10 | C[C@@H]1CN(c2ccc3nc(-c4cc5cn(C)nc5cc4O)ncc3c2)C[C@H](C)N1 [Compound 751, 5-{6-[(3R,5S)-3,5-dimethylpiperazin-1-yl]quinazolin-2-yl}-2-methylindazol-6-ol hydrochloride] | > 10
7 | < 0.1 | > 10 | 1 to 10 | 1 to 10 | C[C@H]1CN(c2ccc3nc(-c4cc5cn(C)nc5cc4O)ncc3c2)C[C@H](C)N1 [Compound 752, 5-{6-[(3S,5S)-3,5-dimethylpiperazin-1-yl]quinazolin-2-yl}-2-methylindazol-6-ol] | 1 to 10
8 | < 0.1 | > 10 | 1 to 10 | 1 to 10 | C[C@@H]1CN(c2ccc3nc(-c4cc5cn(C)nc5cc4O)ncc3c2)C[C@@H](C)N1 [Compound 753, 5-{6-[(3R,5R)-3,5-dimethylpiperazin-1-yl]quinazolin-2-yl}-2-methylindazol-6-ol] | 1 to 10
9 | < 0.1 | 0.1 to 1 | 0.1 to 1 | 0.1 to 1 | CCN(CC)C1CCN(c2ccc3nc(-c4cc5cn(C)nc5c(F)c4O)ncc3c2)CC1 [Compound 756, 5-{6-[4-(diethylamino)piperidin-1-yl]quinazolin-2-yl}-7-fluoro-2-methylindazol-6-ol] | 0.1 to 1
